From patent US9968649B2, “Vasopressin formulations for use in treatment of hypotension” (Par Pharmaceutical, Inc., priority 2015, dated 2018)
Several values for one entry are separate records, joined by “and”; a condition that tells them apart may be missing. Equal entries are not always repeated.

What was measured:
[1] = Particulate matter (USP) of stored samples (Example 8); type: physicochemical; details: inverted
Protocol: Experiments were also conducted on the same samples above over the course of the experiments to measure the amount of individual impurities in the samples, pH of the samples, chlorobutanol content, particulate matter, antimicrobial effectiveness, and bacterial endotoxin levels (TABLES 25-42). (NR=no reading; ND=not determined; UI=unidentified impurity).

[2] = system: patients with vasodilatory shock; details: cited from earlier work
[3] = system: spermatozoa; details: mice; cited from earlier work

NC(=O)CC[C@@H]1NC(=O)[C@H](Cc2ccccc2)NC(=O)[C@H](Cc2ccc(O)cc2)NC(=O)[C@@H](N)CSSC[C@@H](C(=O)N2CCC[C@H]2C(=O)N[C@@H](CCCN=C(N)N)C(=O)NCC(N)=O)NC(=O)[C@H](CC(N)=O)NC1=O [Vasopressin, Cyclo (1-6) L-Cysteinyl-L-Tyrosyl-L-Phenylalanyl-L-Glutaminyl-L-Asparaginyl-L-Cysteinyl-L-Prolyl-L-Arginyl-L-Glycinamide]
Particulate Matter (USP) (≥10 μm) ([1]; 5° C., 1 month): 1 and 2 | Particulate Matter (USP) (≥25 μm) ([1]; 5° C., 1 month): 0 | Particulate Matter (USP) (≥10 μm) ([1]; 5° C., 2 months): 1 | Particulate Matter (USP) (≥25 μm) ([1]; 5° C., 2 months): 0 | Particulate Matter (USP) (≥10 μm) ([1]; 5° C., 3 months): 1 and 2 | Particulate Matter (USP) (≥25 μm) ([1]; 5° C., 3 months): 0 | Particulate Matter (USP) (≥10 μm) ([1]; 5° C., 6 months): 2 and 1 | Particulate Matter (USP) (≥25 μm) ([1]; 5° C., 6 months): 0 | Particulate Matter (USP) (≥25 μm) ([1]; 5° C., 9 months): 0 | Particulate Matter (USP) (≥10 μm) ([1]; 5° C., 12 months): 2 | Particulate Matter (USP) (≥25 μm) ([1]; 5° C., 12 months): 0 | Particulate Matter (USP) (≥25 μm) ([1]; 5° C., 18 months): 0 | Particulate Matter (USP) (≥25 μm) ([1]; 5° C., 24 months): 0 | Particulate Matter (USP) (≥25 μm) ([1]; 5° C., Initial): 0 | Particulate Matter (USP) (≥10 μm) ([1]; 40° C., 1 month): 1 | Particulate Matter (USP) (≥25 μm) ([1]; 40° C., 1 month): 0 | Particulate Matter (USP) (≥10 μm) ([1]; 40° C., 2 months): 1 | Particulate Matter (USP) (≥25 μm) ([1]; 40° C., 2 months): 0 | Particulate Matter (USP) (≥10 μm) ([1]; 40° C., 3 months): 1 | Particulate Matter (USP) (≥25 μm) ([1]; 40° C., 3 months): 0 | Particulate Matter (USP) (≥10 μm) ([1]; 40° C., Initial): 1 | Particulate Matter (USP) (≥25 μm) ([1]; 40° C., Initial): 0 | time for pressor effect to fade ([2]; after stopping the infusion): ≤ 20 min | time of peak pressor effect ([2]; infusion of exogenous vasopressin): ≤ 15 min | hemodynamic effect at therapeutic doses ([2]; patients with vasodilatory shock): increases systemic vascular resistance and mean arterial blood pressure | tachyphylaxis or tolerance to the pressor effect ([2]; patients): no evidence for tachyphylaxis or tolerance | effect on spermatozoa [3]: can have an effect on function and fertilizing ability of spermatozoa
